Results published in US20120142771A1, “BIPHENYLACETAMIDE DERIVATIVE” (Dainippon Sumitomo Pharma Co., Ltd., priority 2008, published 2012).

Key:
[1] = tested on: subcutaneously pentetrazol-injected model (scPTZ); test: Subcutaneously pentetrazol-injected model (scPTZ) test; format: in vivo, mice; conditions: pentetrazol 85 mg/kg s.c. after 1 hour
Procedure, shortened: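 Male Slc:ddY mice (20-30 g, 3 per group) dosed orally at 50 or 100 mg/kg; pentetrazol 85 mg/kg given subcutaneously 1 h later. Controls received 0.5% tragacanth or 0.5% methylcellulose vehicle.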

[2] = tested on: 6 Hz psychomotor seizure model; test: 6 Hz psychomotor seizure model; format: in vivo, mice; conditions: mice, oral
Protocol: Test 4: Test of 6 Hz Psychomotor Seizure Model
Similar to Tests 1 and 2, Test 4 evaluates the anticonvulsant action of medicaments. However, unlike Tests 1 and 2, the animal model used herein represents clinical phenotypes of seizures resistant to existing antiepileptic drugs. […] After 30 minutes or an hour of administration, their corneas were electrically stimulated (6 Hz, 32 mA, 3 seconds) to induce symptoms of myoclonus in their forelimbs, Straub tail, and immobility. […] To the control mice, 0.5% tragacanth solution, 0.5% methylcellulose solution, or olive oil was administered.

[3] = tested on: Slc: C57BL/6J male mice; test: Evaluation of antimanic effect (methamphetamine and chlordiazepoxide induced hyperactivity, locomotor distance); format: in vivo; conditions: for The rate of the shortened locomotor-distance (% control): methamphetamine 4 mg/kg and chlordiazepoxide 10 mg/kg i.p.
From the text: (§1) Meanwhile, there are no reports about animal models which provide a good clinical prediction to evaluate the improving efficacy for bipolar disorder. However, bipolar disorder comprises “manic state” and “depressive state”, and some animals are reported to be useful as a model to evaluate the improvement of each pathological condition individually. In general, an index of manic state is excessive hyperactivity induced by administering methamphetamine and chlordiazepoxide in combination, and that of depressive state is immobility induced by forced swimming.
Test 7: Evaluation of Antimanic Effect
Test 7 evaluates the antimanic effect of medicaments. The evaluation system is a test system whose utility has been already confirmed with a known antimanic agent which is clinically used as a mood-stabilizing drug, not as a drug for treating schizophrenia (Arban et al., Behay. Brain Res., 158:123-132, 2005, Foreman et al., Pharmacol. Biochem. Behay., 89: 523-534, 2008). Test compounds were orally administered to Slc: C57BL/6J male mice (8 mice in each group, body weight 20-26 g). After 30 minutes of administration, methamphetamine (4 mg/kg) and chlordiazepoxide (10 mg/kg) were administered intraperitoneally. Then, the mice were allowed to move freely in an acrylic cage (W 360 mm×D 230 mm×H 310 mm) for 90 minutes. The locomotor distances of the mice were measured with Ethovision software (Ver. 3.1). Among the 90 minutes, the result of the latter 60 minutes with the exception of the first 30 minute's result for adaptation to the new environment was used as data of the locomotor distance. The antimanic effect was evaluated by calculating how long locomotor distance was shortened against the control. To the control mice, 0.5% methylcellulose solution was administered.

[4] = tested on: maximum electroshock seizure (MES) model; test: Maximum electroshock seizure (MES) model test; format: in vivo, mice
Procedure, shortened: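 Male Slc: ddY mice (3 per group, 20-30 g) received compound orally at 50 or 100 mg/kg; controls got 0.5% tragacanth or 0.5% methylcellulose. One hour post-dose, corneal stimulation (60 Hz, 25 mA, 0.2 s) induced tonic hind-limb extensor convulsion.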

[5] = tested on: Crl: CD (SD) male rats; test: Evaluation of antidepressant effect (forced swimming, duration of immobility); format: in vivo
From the text: as §1
Test 6: Evaluation of Antidepressant Effect
Test 6 is a typical test to evaluate the antidepressant activity of medicaments (Porsolt et al., Nature, 266: 730-732, 1977, Porsolt et al., Eur. J. Pharmacol., 47: 379-391, 1978). Crl: CD (SD) male rats (12 rats in each group, body weight 200-250 g) were forced to swim for 15 minutes in a water pool with 200 mm diameter. In the pool, water was filled up to a depth of 205 mm from the bottom of the pool, and thus the rats could not touch the bottom of the pool with their hind limbs. Fifteen minutes after the completion of the forced swimming, test compounds were orally administered to the rats. On the next day, the test compounds were administered to the rats at the same dose as the previous day, and the rats were put in the pool for 5 minutes at the same clock time as the previous day. […] The antidepressant effect was evaluated by calculating how long the duration of immobility was shortened against the control. To the control, 0.5% methylcellulose solution was administered.

Structure (SMILES) | responders at 50 mg/kg ([1]; Mus musculus, po, 1 h, 50 mg/kg oral, Slc: ddY male mice, 3 per group, observed 30 minutes for clonic convulsion, read-out: scPTZ (positive number/tested number) (converted)) [%] | responders at 100 mg/kg ([1]; Mus musculus, po, 1 h, 100 mg/kg oral, Slc: ddY male mice, 3 per group, observed 30 minutes for clonic convulsion, read-out: scPTZ (positive number/tested number) (converted)) [%] | anticonvulsant action in subcutaneously pentetrazol-injected model (scPTZ) test ([1]; mice, oral 50 or 100 mg/kg) | ED50 ([2]; Mus musculus, 6 Hz psychomotor seizure model, read-out: ED50) [mg/kg] | 6 Hz (Positive number/tested number) ([2]; dose 50 mg, 30 minutes or 1 hour after administration) | The rate of the shortened locomotor-distance (% control) ([3]; 30 mg/kg oral) | The rate of the shortened locomotor-distance (% control) ([3]; 60 mg/kg oral) | The rate of the shortened locomotor-distance (% control) ([3]; 100 mg/kg oral) | responders at 50 mg/kg ([4]; Mus musculus, po, 1 h, 50 mg/kg oral, Slc: ddY male mice, 3 per group, electrical stimulation 1 hour after administration, inhibition of hind limb extension, read-out: MES (positive number/tested number) (converted)) [%] | responders at 100 mg/kg ([4]; Mus musculus, po, 1 h, 100 mg/kg oral, Slc: ddY male mice, 3 per group, electrical stimulation 1 hour after administration, inhibition of hind limb extension, read-out: MES (positive number/tested number) (converted)) [%] | anticonvulsant action in maximum electroshock seizure (MES) model test ([4]; mice, oral 50 or 100 mg/kg, 1 hour after administration) | The rate of the shortened duration of immobility (% control) ([5]; 10 mg/kg oral) | The rate of the shortened duration of immobility (% control) ([5]; 30 mg/kg oral) | locomotor distance ([3]; same conditions) | duration of immobility ([5]; same conditions)
NC(=O)Cc1ccccc1-c1ccccc1Cl [Example 16, 2-(2′-chlorobiphenyl-2-yl)acetamide] | 66.7 | 100 | anticonvulsant action was observed | 38.1 | 8/10/50 | 45.7 | 69.1 | 84.9 | 100 | 100 | anticonvulsant action was observed | 19.9 | 21.9 | – | –
Nc1nnc(-c2cccc(Cl)c2Cl)c(N)n1 [Lamotrigine, reference compound] | – | – | – | – | – | – | – | – | – | – | – | – | – | dose-dependently shortened | dose-dependently shortened
